{"source": "patent US7368576B2", "about": "“Dipeptidyl peptidase IV inhibitors and their uses as anti-cancer agents” (Probiodrug AG, priority 2001, dated 2008)", "key": {"[1]": {"molecular_target": "T1, porcine dipeptidyl peptidase II (DP II) (Sus scrofa, UniProt A0A5G2QK18)", "T1 construct": "The enzyme used was purified from porcine kidney; from tissue; host or cells: porcine kidney", "T1 sequence (A0A5G2QK18 28-502)": "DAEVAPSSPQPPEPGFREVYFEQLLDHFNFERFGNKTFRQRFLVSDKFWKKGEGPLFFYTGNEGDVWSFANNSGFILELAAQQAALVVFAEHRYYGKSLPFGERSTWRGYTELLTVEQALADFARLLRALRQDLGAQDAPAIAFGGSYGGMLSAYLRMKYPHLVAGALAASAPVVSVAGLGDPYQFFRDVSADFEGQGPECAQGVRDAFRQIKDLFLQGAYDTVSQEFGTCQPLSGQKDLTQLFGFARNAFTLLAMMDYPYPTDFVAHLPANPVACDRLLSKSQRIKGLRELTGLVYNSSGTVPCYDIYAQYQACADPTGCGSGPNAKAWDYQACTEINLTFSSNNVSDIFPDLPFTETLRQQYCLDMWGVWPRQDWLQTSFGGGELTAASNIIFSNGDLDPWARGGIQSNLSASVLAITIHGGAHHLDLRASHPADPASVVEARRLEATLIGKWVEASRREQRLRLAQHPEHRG", "assay": "Inhibition of DPIV-like enzymes, dipeptidyl peptidase II", "assay_type": "biochemical", "settings": "lysylalanylaminomethylcoumarine, 30° C.; read-out: Ki against porcine dipeptidyl peptidase II", "procedure": "DP II (3.4.14.2) releases N-terminal dipeptides from oligopeptides if the N-terminus is not protonated (McDonald, J. K., Ellis, S. & Reilly, T. J., 1966, J. Biol. Chem., 241, 1494-1501). Pro and Ala in Pi-position are preferred residues. The enzyme activity is described as DPIV-like activity, but DP II has an acidic pH-optimum. The enzyme used was purified from porcine kidney.\n100 μl glutaminyl pyrrolidine or glutaminyl thiazolidine in an concentration range of 1*10^−4 M-5*10^−8 M were admixed with 100 μl μl buffer solution (40 mM HEPES, pH7.6, 0.015% Brij, 1 mM DTT), 50 μl lysylalanylaminomethylcoumarine solution (5 mM) and 20 μl porcine DP II (250fold diluted in buffer solution). Fluorescence measurement was performed at 30° C. and λexiatation=380 nm, λemission=465 nm for 25 min using a plate reader (HTS7000plus, Applied Biosystems, Weiterstadt, Germany)."}, "[2]": {"molecular_target": "T2, Prolidase from porcine kidney (Sus scrofa, UniProt A0A5G2QQV1)", "T2 construct": "Prolidase from porcine kidney; purchased ICN Biomedicals, Eschwege, Germany; host or cells: porcine kidney", "T2 sequence (A0A5G2QQV1 1-463)": "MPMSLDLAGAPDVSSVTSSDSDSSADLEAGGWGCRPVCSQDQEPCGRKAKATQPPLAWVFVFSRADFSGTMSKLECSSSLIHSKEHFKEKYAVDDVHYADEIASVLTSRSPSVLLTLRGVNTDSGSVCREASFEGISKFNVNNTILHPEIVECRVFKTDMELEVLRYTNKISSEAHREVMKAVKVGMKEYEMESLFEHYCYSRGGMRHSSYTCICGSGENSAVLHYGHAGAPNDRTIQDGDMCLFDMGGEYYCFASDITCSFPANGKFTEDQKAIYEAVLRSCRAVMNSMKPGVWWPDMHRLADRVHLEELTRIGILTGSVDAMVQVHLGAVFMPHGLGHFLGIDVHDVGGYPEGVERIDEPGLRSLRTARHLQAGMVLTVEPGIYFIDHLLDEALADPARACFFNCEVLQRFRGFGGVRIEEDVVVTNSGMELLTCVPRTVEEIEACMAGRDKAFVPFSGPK", "assay": "Cross reacting enzymes: prolidase", "assay_type": "biochemical", "settings": "Ile-Pro-OH 0.5 mM, pH 7.6; read-out: IC50 against prolidase", "procedure": "Prolidase from porcine kidney (ICN Biomedicals, Eschwege, Germany) was solved (1 mg/ml) in assay buffer (20 mM NH4(CH3COO)2, 3 mM MnCl2, pH 7.6). In order to get a fully active enzyme the solution was incubated for 60 min at room temperature.\n450 μl glutaminyl pyrrolidine or glutaminyl thiazolidine in an concentration range of 5*10^−3 M-5*10^−7 M were admixed with 500 μl buffer solution (20 mM […], pH 7.6) and 250 μl Ile-Pro-OH (0.5 mM in the assay mixture). The assay mixture was pre-incubated at 30° C. for 5 min. After pre-incubation, 75 μl Prolidase (1:10 diluted in assay buffer) were added and measurement was performed at 30° C. and λ=220 nm for 20 min using a UV/Vis photometer, UV1 (Thermo Spectronic, Cambridge, UK).\nThe IC 50-values were calculated using Graphit 4.0.15 (Erithacus Software, Ltd., UK)."}}}
{"smiles": "NC(=O)CCC(N)C(=O)N1CCCC1", "note": "(centres unmarked) [Gln-Pyrr, glutaminyl pyrrolidine]", "values": [{"measurement": "Ki", "setting": "[1]", "value": 85.2, "unit": "µM"}, {"measurement": "IC50", "setting": "[2]", "value": 340, "unit": "µM"}]}
